Results published in US20070299084A1, “Indole Derivatives Useful for Treating Resistance to Antitumor Agents” (NIKEM RESE S.R.L., priority 2004, published 2007).

Key:
[1] = test system: H460 spontaneous lung metastasis; experiment: H460 xenograft, spontaneous lung metastasis (antimetastatic activity); format: in vivo, athymic Swiss nude mice; conditions: topotecan 1 mg/kg, compound of example 2 30 mg/kg p.o.
Experimental: At day 63, tumor-bearing mice were sacrificed by cervical dislocation and their lungs were removed and weighed. Lung lobes were spliced between two glass slides and the metastatic nodules were macroscopically counted against a bright light (Corti C, J. Cancer Res. Clin. Oncol. 122, 154-60, 1996). […] Reading of metastasis was performed by two independent observers, unaware of the experimental group, with an interobserver reproducibility >95%. The metastatic nature of these areas was confirmed by histological analysis of digital images obtained by Image Analysis System software (Delta System, Rome, Italy).

[2] = test system: SK-N-BE(2) cells (human neuroblastoma); experiment: Antiproliferative activity, 48 h treatment, ATPlite luminescence assay, SK-N-BE(2); format: cell-based; conditions: Homo sapiens, SKNBE2, 48 h, read-out: Antiproliferative activity (IC50 ± S.D., μM) SK-N-BE(2)
Experimental: SH-SY5Y and SK-N-BE(2): maintained in HAM-F12 medium+10% FCS.
24 hours after seeding, an aliquot (10 μl) of the drug at the various concentrations is added (for each concentration there are 3 replicates). After 48 hours of treatment the antiproliferative effect is evaluated with a luminescence assay (Perkin Elmer Life Sciences ATPlite):
50 μl of a lysis solution are added to each well followed by an equal volume of a solution containing luciferase and D-luciferin. The ATP present in all the metabolically active cells brings about the transformation reaction of D-luciferin, catalysed by luciferase, to produce a luminescent signal as described in the following scheme: ATP+D-luciferin+O2→Oxyluciferin+AMP+PPi+CO2+Light
The luminescence produced (expressed in counts per second, CPS) is measured by means of a microplate scintillation analyzer (Perkin Elmer Life Sciences Top Count).
Percentage inhibition of luminescence in the treated cells compared to the control is calculated; concentration-response curves are then analysed using Grafit v.5.0.

[3] = test system: HT29 cells (human colon carcinoma); experiment: Antiproliferative activity, 72 h treatment, SRB assay, HT29; format: cell-based
From the text: HT29 and HT29/Mit (line obtained by prolonged exposure to mitoxantrone, and characterised by overerexpression of BCRP, which confers cross resistance to topotecan, irinotecan and to its metabolite SN38): maintained in McCoy 5A medium+10% FCS.

[4] = test system: LoVo cells (human colon carcinoma); experiment: Antiproliferative activity, 72 h treatment, SRB assay, LoVo; format: cell-based
From the text: (§1) LoVo and LoVo/Dx (line obtained by prolonged exposure to doxorubicin and characterised by overerexpression of P-glycoprotein, which confers resistance to doxorubicin): maintained in HAM-F12 medium+10% FCS.

[5] = test system: H460 cells (human lung carcinoma); experiment: Invasion assay (Matrigel chemoinvasion); format: cell-based
Experimental: (§2) Human Lung Carcinoma:H460: maintained in RPMI1640 medium+10% FCS.
(§3) H460 cells were seeded in complete medium and treated with different compound concentrations for 24 h. Then, cells were harvested and transferred to 24-well Transwell chambers (Costar) in serum-free medium in the following ways:
invasion assay: Transwell membranes were coated with 12.5 μg/well of Matrigel (BD Biosciences) and dried for 24 h. After this, 2.4×10^5 cells/well were seeded onto the artificial basement membrane in upper chamber, and drug was added as described for migration assay. After 24 h of incubation at 37° C., cells that invaded the Matrigel and migrated to the lower chamber were stained and counted as described for migration assay.

[6] = test system: H460 cells (human lung carcinoma); experiment: Migration assay (Transwell chemotaxis); format: cell-based; conditions: after 24 h incubation
Experimental: as §2, §3
migration assay: 1.2×10^5 cells/well were seeded in the upper chamber, and the drug was added, in the same concentrations utilized before, in both upper and lower chambers. After 4 h of incubation at 37° C., migrated cells were fixed in 95% ethanol, stained with a 2% crystal violet in 70% ethanol solution, and counted by an inverted microscope.

[7] = test system: LoVo/Dx cells (doxorubicin-resistant human colon carcinoma, P-glycoprotein overexpression); experiment: Antiproliferative activity, 72 h treatment, SRB assay, LoVo/Dx; format: cell-based
From the text: as §1

[8] = test system: HCT116 cells (human colon carcinoma); experiment: Antiproliferative activity, 72 h treatment, SRB assay, HCT116; format: cell-based
Experimental: HCT116 maintained in RPMI 1640 medium+10% FCS.
The cells (HT29 and HT29/Mit:. 40,000 cells/ml, LoVo, LoVo/Dx and HCT116: 50,000 cells/ml) are seeded in 100 μl of the respective culture media in 96-well plates. 24 hours after seeding, an aliquot (10 μl) of drug at the various concentrations is added. In the samples in which the effect of the combination of two compounds is to be tested the inhibitor is added immediately before the cytotoxic. For each dose or combination of doses/drugs the effect of the treatment is determined in 4-8 replicates.
After 72 hours of treatment the antiproliferative effect is evaluated using the sulforhodamine B (SRB) assay: the cells are fixed by adding 25 μl of 50% TCA to each well and left for 1 hour at 4° C. After washing them with water and allowing them to dry, 100 μl of 0.4% SRB in 1% acetic acid are added and left for 30 minutes at room temperature. After 4 washes in 1% acetic acid, they are left to dry, then the dye fixed by the proteins is dissolved under basic conditions with 100 μl 10 mM cold Tris and the solution is read using a spectrophotometer at 550 nm.
Percentage cell growth is calculated as the optical density of treated samples compared to the optical density of controls (untreated cells).
The Combination Index (C.I.) was determined according to Kern's method, 1988 (who continued from Drewinko B, 1976) (Kern D. H., Cancer Res. 48, 117-121, 1988; Drewinko B., Cancer Biochem. Biophys. 1, 187-195, 1976) by means of the following formula: […], where SFa and SFb are the fractions of cells surviving to treatment with compound a and b, respectively; SFab is the fraction surviving to the combination of compounds a and b.

[9] = cell line not stated in the sentence (follows LoVo/DX)

## CCOc1cc(C(=O)NC2CC(C)(C)NC(C)(C)C2)ccc1-c1cc2cc(Cl)c(Cl)cc2[nH]1 [Example 2]
[1]; day 63
  Lung No. Metastasis (range): reduced
  Lung Weight (mg) (mean ± S.D.): 177 ± 30 mg
[1]; day 63, listed as Compound of example 2
  Lung No. Metastasis (range): 15 (3-56)
[1]; inhibition of number of metastasis vs controls
  Lung metastasis Inhibition %: 42%
[2]
  IC50: 3.7 ± 0.2 µM
[3]; HT29 model, subtoxic and subactive concentrations (<1 μM) of compound of example 2
  Effect on antiproliferative activity of topotecan: enhanced antiproliferative activity of topotecan
[3]; Homo sapiens, HT-29, 72 h, read-out: Antiproliferative activity (IC50 ± S.D., μM) HT-29
  IC50: 1 ± 0.1 µM
[3]; all lines: 72 hours (HT29, HT29/Mit, LoVo, LoVo/DX, HCT116) or 48 hours (HepG2, SHSY-5Y, SK-N-BE(2), A2780)
  Antiproliferative activity in the human tumour cell lines used (summary of Table 1): high antiproliferative potency
[4]; Homo sapiens, LoVo, 72 h, read-out: Antiproliferative activity (IC50 ± S.D., μM) LoVo
  IC50: 2.4 ± 1.4 µM
[4]; LoVo line
  Interaction with SN38: synergism
  Interaction with taxol: synergism
[5]; NCI-H460, 2.2 μM
  inhibition at 2.2 µM: 92%
[5]; NCI-H460, 5.7 μM
  inhibition at 5.7 µM: 100%
[6]; NCI-H460, 2.2 μM
  inhibition at 2.2 µM: 51%
[6]; NCI-H460, 5.7 μM
  inhibition at 5.7 µM: 92%
[7]; Homo sapiens, LoVo/DX, 72 h, read-out: Antiproliferative activity (IC50 ± S.D., μM) LoVo/Dx
  IC50: 3 ± 1.3 µM
[7]; LoVo/DX variant (MDR phenotype), compared with LoVo
  Interaction with SN38: even more evident
[7]; [9]
  Interaction with doxorubicin: Synergistic interactions
  Interaction with taxol: Synergistic interactions
[8]; HCT116 line, subtoxic and subactive concentrations
  Interaction with cisplatin: significant synergistic effect
[8]; Homo sapiens, HCT-116, 72 h, read-out: Antiproliferative activity (IC50 ± S.D., μM) HCT116
  IC50: 2.4 ± 0.9 µM
